The source of these data is US4885284A, “Dihydropyridine-5-phosphonic acid cyclic propylene ester” (Nissan Chemical Industries Ltd., priority 1986, dated 1989).

In series [1] the test system is taenia caecum of guinea pig. The experiment in a line: Calcium antagonistic effect (relaxation of CaCl2-induced contraction in K+-depolarized taenia caecum). The note with it: Cavia porcellus; -log ID50 (M); 50% relaxation relative to maximum relaxation by 10^-4 M papaverine; 37° C, 10 mM CaCl2; read-out: pID50 (calcium antagonistic effect) (converted). It is filed as cell-based. As to the method:
10 mm in situ length of taenia caecum of guinea pig was suspended at a tension of 1 g in a 20 ml organ bath filled with a physiological salt solution (NaCl: 135 mM, KCl: 5 mM etc.).
This solution was bubbled with a gas mixture of 95% O2 -5% CO2 and kept at 37° C. Then, the preparation was depolarized by a K^+ rich solution (NaCl: 40 mM, KCl: 100 mM). After 10-20 minutes equilibration period, 10 mM of CaCl2 was added to the bathing solution. The contraction was produced, and then the test compound applied cumulatively. The relaxation produced was expressed as percentage of the maximum relaxation produced by 10^-4 M papaverine, and the concentration of the compound producing 50% relaxation, i.e. ID50 (M), was calculated.

A short description of series [2]: Acute toxicity test (oral LD50). To be noted: mouse, in vivo; oral (5% solution), male ddY mice, seven days, Litchfield-Wilcoxon. The procedure: ddY mice (.male., 4 weeks old) were divided into groups of five mice and the test compound dissolved in purified water was administered orally (5% solution) (p.o) to the male ddY mice.
After seven days, LD50 values were calculated from the dead […] recorded in the individual dosage groups by the method of Litchfield-Wilcoxon.

The test system of series [3] is male spontaneously hypertensive rat (SHR). As to the kind of experiment: Antihypertensive effect (systolic blood pressure, tail cuff method, oral, SHR). It is filed as in vivo. The note with it: systolic blood pressure at 2, 4, 6 and 8 hours. The procedure: After oral administration of the test compound dissolved in a H2 O-PEG 400 solvent mixture (H2 O:PEG 400 (w/w)=1:3) to the male spontaneously hypertensive rat (SHR), the systolic blood pressure was measured at 2, 4, 6 and 8 hours after the administration of the test compounds by a tail cuff method. Prior to the measurement, rats were warmed at 50° C. for five minutes. The effectively antihypertensive activities were observed also at 8 hours after the administraton of the test compounds. Test 2: Acute toxicity test

Counter-ions that a name gives are not always drawn. A value given as a limit tells only on which side of the number the result lay.

As to `CC1=C(C(=O)OC(C)CN(Cc2ccccc2)c2ccccc2)C(c2cccc(Cl)c2Cl)C(P2(=O)O[C@H](C)C[C@@H](C)O2)=C(C)N1` (some centres unmarked) [Hydrochloride of Example 6], in series [1], the IC50 was 1.05e-07 M. The LD50 at 168 h in series [2] was > 300 mg/kg. Moreover, the “Antihypertensive effect, maximum decrease” value in series [3] (dose 10 mg/kg) is on record as 28%.
`CC1=C(C(=O)OC(C)CN(Cc2ccccc2)c2ccccc2)C(c2cccc([N+](=O)[O-])c2)C(P2(=O)OC(C)(C)CC(C)(C)O2)=C(C)N1` (centres unmarked) [Hydrochloride of Example 4]: the IC50 in series [1] was 1.26e-07 M. Also, the LD50 at 168 h in series [2] is > 300 mg/kg. Moreover, the “Antihypertensive effect, maximum decrease” value in series [3] (dose 20 mg/kg) came to 38%.
For the molecule `CC1=C(C(=O)OCCN(Cc2ccccc2)c2ccccc2)C(c2cccc([N+](=O)[O-])c2)C(P2(=O)OC(C)(C)CC(C)(C)O2)=C(C)N1` (centres unmarked) [Hydrochloride of Example 5], in series [2], the LD50 at 168 h was > 300 mg/kg. Also, the “Antihypertensive effect, maximum decrease” value in series [3] (dose 10 mg/kg) is listed as 40%.
Consider `CC1=C(C(=O)OCCN2CCN(C(c3ccccc3)c3ccccc3)CC2)C(c2cccc(Cl)c2Cl)C(P2(=O)OCC(C)(C)CO2)=C(C)N1` (centres unmarked) [Dihydrochloride of Example 2], for which, in series [1], the IC50 is 9.77e-08 M. Further, the LD50 at 168 h in series [2] is > 400 mg/kg. The “Antihypertensive effect, maximum decrease” value in series [3] (dose 10 mg/kg) is reported as 37%.
For the molecule `CC1=C(C(=O)OCCCN2CCN(C(c3ccc(F)cc3)c3ccc(F)cc3)CC2)C(c2cccc(Cl)c2Cl)C(P2(=O)OCC(C)(C)CO2)=C(C)N1` (centres unmarked) [Dihydrochloride of Example 3], the IC50 in series [1] was 1.74e-07 M. Further, the LD50 at 168 h in series [2] is > 400 mg/kg. Also, in series [3] (dose 15 mg/kg), the “Antihypertensive effect, maximum decrease” value was found to be 36%.
The like results for `CC1=C(C(=O)OCCN(Cc2ccccc2)c2ccccc2)C(c2cccc([N+](=O)[O-])c2)C(P2(=O)O[C@H](C)C[C@@H](C)O2)=C(C)N1` (some centres unmarked) [Hydrochloride of Example 7] were, in that order, 6.76e-09 M, > 600 mg/kg and 34%.
Consider `CC1=C(C(=O)OCCN(Cc2ccccc2)c2ccccc2)C(c2cccc([N+](=O)[O-])c2)C(P2(=O)OCC(C)(C)CO2)=C(C)N1` (centres unmarked) [Hydrochloride of Example 1], for which the IC50 in series [1] was 6.76e-09 M. In addition, the LD50 at 168 h in series [2] is > 600 mg/kg. For the same molecule, in series [3] (dose 15 mg/kg), the “Antihypertensive effect, maximum decrease” value amounted to 36%.
